# Source: US20230112845A1, “COMPOSITIONS OF BERBERINE URSODE[…] METHODS THEREOF FOR TREATING FATTY LIVER DISEASE, DIABETES AND HYPERLIPIDEMIA” (SHENZHEN HIGHTIDE BIOPHARMACEUTICAL LTD., priority 2020, published 2023)
# Tested on: patients with presumed NASH and type 2 diabetes
# Assay: Phase 2 randomized placebo-controlled trial, 18 weeks: liver fat content (MRI-PDFF), glycemic control, liver enzymes, lipids, body weight, fibrosis markers
# Type: in vivo, human
# Conditions: 18 weeks; for Absolute Change in LFC (%), Mean / Relative Change in LFC (%), Mean / Absolute Change in LFC (%), LS Mean / Relative Change in LFC (%), LS Mean: Efficacy Set; for Absolute Change in LFC (%), Mean: placebo −2.0; for Relative Change in LFC (%), Mean: placebo −8.3; for Absolute Change in LFC (%), LS Mean: placebo −1.8; for Relative Change in LFC (%), LS Mean: placebo −8.2; for Mean change in LDL-c (mg/dL), Mean / Mean change in HbA1c (%), Mean / Relative change in GGT (%), Mean / Mean change in TG (mg/dL), Mean / Mean change in GGT (U/L), Mean / Mean change in ALT (U/L), Mean / Relative change in ALT (%), Mean / Mean change in HbA1c (%), LS Mean / Mean change in LDL-c (mg/dL), LS Mean / Mean change in TG (mg/dL), LS Mean / Mean change in GGT (U/L), LS Mean / Mean change in ALT (U/L), LS Mean: Modified Efficacy Set; for Mean change in LDL-c (mg/dL), Mean: placebo 0; for Mean change in HbA1c (%), Mean / Mean change in HbA1c (%), LS Mean: placebo 0.1; for Relative change in GGT (%), Mean: placebo 5; for Mean change in TG (mg/dL), Mean: placebo 18; for Mean change in GGT (U/L), Mean / Mean change in ALT (U/L), LS Mean: placebo −2; for Mean change in ALT (U/L), Mean: placebo −3; for Relative change in ALT (%), Mean: placebo −6; for Mean change in LDL-c (mg/dL), LS Mean: placebo 1; for Mean change in TG (mg/dL), LS Mean: placebo 19; for Mean change in GGT (U/L), LS Mean: placebo −1; for Mean change in Body weight (kg), Mean / Mean change in Body weight (kg), LS Mean: Safety Set, placebo −1.1
# From the text: The aim of this study was to determine the effect of two different doses of BUDCA on liver fat content (LFC) in patients with diabetes and presumed NASH when administered for 18 weeks. This phase 2 clinical trial tested the effect of BUDCA in patients with fatty liver disease and diabetes. The group taking the higher dose of this new drug had significant reductions in the amount of fat in their liver as well as improvement in their diabetes.
# A prospective, randomized, placebo-controlled trial of two doses of BUDCA administered orally was conducted in a cohort of 100 subjects with fatty liver disease and diabetes. Treatment was for 18 weeks and endpoints measured included reduction in liver fat content measured by […] proton density fat fraction, improvement in glycemic control, changes in liver-associated enzymes, safety and tolerability.
# Patients with diabetes and presumed NASH were randomized into one of three treatment groups, as follows: 1) BUDCA 500 mg BID 2) 1,000 mg BID and 3) matching placebo. Presumed NASH was defined based largely on magnetic resonance imaging derived proton density fat fraction (MRI-PDFF) of 10% or more. Additional inclusion criteria further enriched the study population for having NASH by virtue of requiring corrected T1 (cT1) of more than 830 milliseconds and elevated serum aspartate aminotransferase (AST)≥20 units per liter (6). Subjects had to be overweight or obese with body mass index of 25 kg/m^2 or more.
# Study subjects underwent an initial screening evaluation, including measurement of LFC by MRI-PDFF. Subjects were excluded if they had known liver disease other than fatty liver disease or a history of excessive alcohol consumption. Although liver biopsies were not done as a part of this study, subjects with clear evidence of cirrhosis were excluded, based upon a platelet count of less than 150,000/mm^3, serum albumin levels less than […] or a current or previous history of clinical hepatic decompensation.
# Those who were deemed eligible were then randomized into one of the three treatment groups described above and underwent a further baseline evaluation at the time of randomization and initial dosing. Subjects were permitted to continue their current treatment regimen for diabetes provided they had been on a stable dose regimen for at least 90 days.
# LFC was measured at baseline and after 18 weeks of therapy. In addition, changes in liver chemistry tests, measures of glycemic control and serum lipid levels were also assessed during and at the end of treatment.
# Descriptive Statistics were used to summarize continuous data, and frequencies and percentages were used to summarize categorical data. The Safety Set consisted of all subjects who received at least one dose of study treatment. The Modified Efficacy Set is a subset of the Safety Set consisting of subjects that had at least one post-dose MRI-PDFF assessment. […] The primary endpoint was an absolute change from Baseline to Week 18 (or ET) in Liver Fat Content. Primary Endpoint summary measures were provided in both the Efficacy and Modified Efficacy sets, with the Efficacy Set prespecified as the primary analysis set. All other endpoints were prespecified to use the Modified Efficacy Set. Comparisons between active treatment groups relative to placebo were tested using Analysis of Covariance (ANCOVA) with treatment group as a fixed effect and baseline value of the parameters of interest as covariates. ANCOVA based LS Means and raw means have been reported. For statistical analysis of laboratory parameters (i.e. P-values), multiple imputation was used to take missing data into account. A two-sided alpha level of 0.05 without adjustment for multiple tests was used to indicate statistical significance. Analyses were performed using SAS System version 9.4.
# Effects of treatment with BUDCA on AST to Platelet Ratio Index (APRI) and Fibrosis-4 (FIB-4) were also measured.
smiles,measurement,setting,value
"COc1ccc2cc3[n+](cc2c1OC)CCc1cc2c(cc1-3)OCO2.C[C@H](CCC(=O)[O-])[C@H]1CC[C@H]2[C@@H]3[C@@H](O)C[C@@H]4C[C@H](O)CC[C@]4(C)[C@H]3CC[C@]12C [BUDCA, berberine ursodeoxycholate]","Absolute Change in LFC (%), Mean","500 mg BID, N 30",−2.9%
same,"Relative Change in LFC (%), Mean","500 mg BID, N 30",−15.1%
same,"Absolute Change in LFC (%), LS Mean","500 mg BID, P 0.199",−3.2%
same,"Relative Change in LFC (%), LS Mean","500 mg BID, P 0.196",−15.9%
same,"Mean change in LDL-c (mg/dL), Mean","500 mg BID, N 27",5 mg/dL
same,"Mean change in HbA1c (%), Mean","500 mg BID, N 29",−0.3%
same,"Relative change in GGT (%), Mean","500 mg BID, N 29",−23%
same,"Mean change in TG (mg/dL), Mean","500 mg BID, N 29",-41 mg/dL
same,"Mean change in GGT (U/L), Mean","500 mg BID, N 29",−19 U/L
same,"Mean change in ALT (U/L), Mean","500 mg BID, N 29",−4 U/L
same,"Relative change in ALT (%), Mean","500 mg BID, N 29",−6%
same,"Mean change in HbA1c (%), LS Mean","500 mg BID, P 0.029",−0.4%
same,"Mean change in LDL-c (mg/dL), LS Mean","500 mg BID, P 0.955",1 mg/dL
same,"Mean change in TG (mg/dL), LS Mean","500 mg BID, P 0.041",-36 mg/dL
same,"Mean change in GGT (U/L), LS Mean","500 mg BID, P 0.005",−20 U/L
same,"Mean change in ALT (U/L), LS Mean","500 mg BID, P 0.674",−5 U/L
same,"Mean change in Body weight (kg), Mean","500 mg BID, N 29",-1.6 kg
same,"Mean change in Body weight (kg), LS Mean","500 mg BID, P 0.554",-1.6 kg
same,decrease in triglyceride level,"500 mg BID, P=0.04",41 mg/dL
same,Proportion achieving ≥ 30% relative reduction in LFC (subjects/total),"500 mg BID, placebo 7/33",6/31
same,Proportion achieving ≥ 5% Absolute Reduction in LFC (subjects/total),"500 mg BID, placebo 8/33",10/31
same,Proportion achieving ≥ 30% relative reduction in LFC (percent),"500 mg BID, placebo 21%",(19%)
same,Proportion achieving ≥ 5% Absolute Reduction in LFC (percent),"500 mg BID, placebo 24%",(32%)
same,decrease in mean HbA1c level,"500 mg BID, placebo increase of 0.1%",0.3%
same,"Absolute Change in LFC (%), Mean","1,000 mg BID, N 27",−4.8%
same,"Relative Change in LFC (%), Mean","1,000 mg BID, N 27",−24.1%
same,"Absolute Change in LFC (%), LS Mean","1,000 mg BID, P 0.011",−4.7%
same,"Relative Change in LFC (%), LS Mean","1,000 mg BID, P 0.016",−23.3%
same,"Mean change in LDL-c (mg/dL), Mean","1,000 mg BID, N 25",-16 mg/dL
same,"Mean change in HbA1c (%), Mean","1,000 mg BID, N 26",−0.6%
same,"Relative change in GGT (%), Mean","1,000 mg BID, N 26",−29%
same,"Mean change in TG (mg/dL), Mean","1,000 mg BID, N 26",-24 mg/dL
same,"Mean change in GGT (U/L), Mean","1,000 mg BID, N 26",−30 U/L
same,"Mean change in ALT (U/L), Mean","1,000 mg BID, N 26",−19 U/L
same,"Relative change in ALT (%), Mean","1,000 mg BID, N 26",−21%
same,"Mean change in HbA1c (%), LS Mean","1,000 mg BID, P 0.005",−0.5%
same,"Mean change in LDL-c (mg/dL), LS Mean","1,000 mg BID, P 0.072",-12 mg/dL
same,"Mean change in TG (mg/dL), LS Mean","1,000 mg BID, P 0.120",-24 mg/dL
same,"Mean change in GGT (U/L), LS Mean","1,000 mg BID, P <0.001",−25 U/L
same,"Mean change in ALT (U/L), LS Mean","1,000 mg BID, P 0.007",−16 U/L
same,"Mean change in Body weight (kg), Mean","1,000 mg BID, N 27",-3.5 kg
same,"Mean change in Body weight (kg), LS Mean","1,000 mg BID, P 0.012",-3.5 kg
same,average body weight loss,"1,000 mg BID, P=0.012",3.5 kg
